US11707539B2, “FAP-targeted radiopharmaceuticals and imaging agents, and uses related thereto” (Trustees of Tufts College, priority 2020, dated 2023)
Where a SMILES comes first, the peptide text is derived from it.

Legend:
[1] = molecular target: recombinant human dipeptidyl peptidase IV (DPPIV) (Homo sapiens (Human), UniProt P27487); assay: In vitro IC50 assay, dipeptidyl peptidase IV (Example 15); assay type: biochemical; details: Gly-Pro-AMC, room temperature
Procedure: (§1) The purpose of this assay is to determine the IC50 of various inhibitors against recombinant human dipeptidyl peptidase IV (DPPIV), fibroblast activation protein (FAP) or prolyl oligopeptidase (PREP).
(§2) The assays are conducted in the following steps: • 1 Dissolve the compound in DMSO to a final concentration of 100 mM. From this, prepare a 1 mM stock at pH 7.5 in 50 mM Tris, 140 mM NaCl Buffer (FAP)/pH 7.5 in 25 mM Tris, 250 mM NaCl Buffer/pH 8.0 140 mM NaCl Buffer (PREP). • 2. Serial dilute (1:10) the 1 mM compound stocks prepared previously into the appropriate assay buffer (FAP: 50 mM Tris, 140 mM NaCl, pH 7.5/PREP: 25 mM Tris, 0.25 M NaCl, pH 7.5/DPPIV: 25 mM Tris, pH 8.0) to one row of a 96-well plate. • 3. […] Dilute the enzymes into their appropriate assay buffers. The final enzyme concentrations should be 0.1, 1.2, and 0.6 nM for DPPIV, FAP and PREP respectively. Add 180 μL to each well needed in columns 2-10. Column 1 (A,B,C) should be prepared with 200 ul of appropriate assay buffer as control. Column 1 (D,E,F,G,H) should be prepared with 20 ul of appropriate assay buffer and 180 ul enzyme as no inhibitor control. • 5. Add 20 μL of the compound of interest from the dilution plate prepared in step 2 to columns 2-10 of the assay plate where appropriate. Each sample should be tested in triplicate. Allow this to incubate for 10 minutes at room temperature, shaking the plate for the first two minutes. • 6. Add 10 μL of 20× substrate prepared in step 3 to each well and allow this to incubate for 15 minutes at room temperature, shaking the plate for the first two minutes. • 7. Read the fluorescence at λex: 380, λem: 460. (DPcore=[dAla|dSerGly]-[boroPro|Pro-nitrile], XXaa=alpha-amino acid)

[2] = Solubility in water after lyophilization
[3] = Stability in aqueous solution of pH about 3; details: during HPLC purification and subsequent lyophilization
recombinant human FAP = recombinant human FAP (Homo sapiens (Human), UniProt Q12884); assay: In vitro enzyme IC50 assay, FAP (Example 10); assay type: biochemical; details: 10 min preincubation at 25° C., Z-Gly-Pro-AMC
Procedure: Biological Materials: For the in vitro IC50 determination assays, recombinant human DPPIV, DPP9, FAP, and PREP were purchased from R&D Systems, and DPP8 was from Biomol International. Buffer systems used were A (25 mM Tris, pH 8.0), B (50 mM Tris, pH 7.5), C (50 mM Tris, 140 mM NaCl, pH 7.5), D (25 mM Tris, 250 mM NaCl, pH 7.5), and E (20 mM Tris, 20 mM KCl, pH 7.4). […] Substrate Specificity Assay. Peptide libraries (0.21 mM) were incubated for 24 h with 1 nM FAP in buffer E at 37° C. The reaction was quenched by the addition of 1.2 N HCl. The samples were analyzed by reverse-phase HPLC-MS on a Thermo Finnigan LCQ Duo, quantifying the peaks in the resulting base peak chromatograms. Relative cleavage values were determined by comparing the postquench abundance of intact peptides to those in the initial library.
In Vitro Enzyme IC50 Assays. Enzymatic activity of DPPIV, DPP8, DPP9, FAP, and PREP was measured at 25° C. on a Molecular Devices M2e multidetection microtiter plate reader, monitoring the fluorescence at an excitation wavelength of 380 nm and an emission wavelength of 460 nm. The substrate was either H-Gly-Pro-AMC for the DPPIV, DPP8, and DPP9 assays or Z-Gly-Pro-AMC for the FAP and PREP assays. The reaction mixture contained […], enzyme, buffer A (DPPIV and DPP9), buffer B (DPP8), buffer C (FAP), or buffer D (PREP) and a suitable amount of inhibitor (ranging between 10-4 and 10-11 M) in a total volume of 210 μL. The final enzyme concentrations were 0.1, 0.8, 0.4, 1.2, and 0.6 nM for DPPIV, DPP8, DPP9, FAP, and PREP, respectively. […] Those prepared in pH 2.0 solution were preincubated at 25° C. for 4 h prior to dilution. Immediately prior to the commencement of the experiment, the 100 mM stocks were further diluted to 10−3 M in the appropriate assay buffer, from which 1:10 serial dilutions were prepared. All inhibitors were tested in triplicate.

[4] = molecular target: recombinant human fibroblast activation protein (FAP) (Homo sapiens (Human), UniProt Q12884); assay: In vitro IC50 assay, fibroblast activation protein (Example 15); assay type: biochemical; details: Z-Gly-Pro-AMC, room temperature; read-out: FAP IC50
Procedure: as §1, §2

Sequence of recombinant human FAP (Q12884 whole entry): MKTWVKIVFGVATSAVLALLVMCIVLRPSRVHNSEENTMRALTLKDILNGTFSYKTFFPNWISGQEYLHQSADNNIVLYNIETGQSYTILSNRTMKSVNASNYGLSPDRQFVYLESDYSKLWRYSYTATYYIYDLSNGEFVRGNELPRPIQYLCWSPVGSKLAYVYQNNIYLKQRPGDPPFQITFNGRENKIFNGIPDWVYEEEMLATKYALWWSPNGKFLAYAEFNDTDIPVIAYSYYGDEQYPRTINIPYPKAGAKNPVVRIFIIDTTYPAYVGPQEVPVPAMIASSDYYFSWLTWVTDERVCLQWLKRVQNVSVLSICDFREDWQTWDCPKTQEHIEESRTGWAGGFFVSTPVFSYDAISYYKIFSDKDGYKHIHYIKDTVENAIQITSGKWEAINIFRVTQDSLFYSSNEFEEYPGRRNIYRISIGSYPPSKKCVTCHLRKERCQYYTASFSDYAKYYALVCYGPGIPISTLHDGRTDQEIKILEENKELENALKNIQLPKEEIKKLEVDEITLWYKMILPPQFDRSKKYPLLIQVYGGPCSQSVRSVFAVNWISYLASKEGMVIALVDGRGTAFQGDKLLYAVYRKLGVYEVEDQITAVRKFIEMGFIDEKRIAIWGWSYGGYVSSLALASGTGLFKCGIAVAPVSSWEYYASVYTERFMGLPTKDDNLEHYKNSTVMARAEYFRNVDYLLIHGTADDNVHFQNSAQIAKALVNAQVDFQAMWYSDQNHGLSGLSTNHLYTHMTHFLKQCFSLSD
Sequence of recombinant human fibroblast activation protein (FAP) (Q12884 whole entry): as above
Sequence of recombinant human dipeptidyl peptidase IV (DPPIV) (P27487 whole entry): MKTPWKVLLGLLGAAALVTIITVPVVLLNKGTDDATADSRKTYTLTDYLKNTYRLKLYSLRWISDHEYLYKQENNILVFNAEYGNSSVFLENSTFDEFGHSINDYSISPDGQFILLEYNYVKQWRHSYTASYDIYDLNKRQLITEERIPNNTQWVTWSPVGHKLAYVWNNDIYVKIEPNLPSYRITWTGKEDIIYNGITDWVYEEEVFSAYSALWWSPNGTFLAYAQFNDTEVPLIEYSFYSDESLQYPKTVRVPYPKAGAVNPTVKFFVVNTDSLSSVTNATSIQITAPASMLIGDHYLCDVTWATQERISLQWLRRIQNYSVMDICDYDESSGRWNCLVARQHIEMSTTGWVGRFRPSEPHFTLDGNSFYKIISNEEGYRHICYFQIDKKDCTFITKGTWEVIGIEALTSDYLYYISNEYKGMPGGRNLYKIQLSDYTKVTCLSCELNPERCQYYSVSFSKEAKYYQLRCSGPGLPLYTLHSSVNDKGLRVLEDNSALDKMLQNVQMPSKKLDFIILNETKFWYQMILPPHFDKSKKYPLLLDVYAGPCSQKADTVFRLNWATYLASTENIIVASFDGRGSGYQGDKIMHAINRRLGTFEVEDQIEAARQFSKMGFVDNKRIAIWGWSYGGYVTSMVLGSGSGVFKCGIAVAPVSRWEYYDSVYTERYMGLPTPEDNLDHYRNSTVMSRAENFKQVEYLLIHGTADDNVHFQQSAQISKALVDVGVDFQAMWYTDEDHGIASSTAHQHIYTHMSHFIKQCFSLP

Compound	IC50 [1]	solubility [2]	degradation in aqueous solution [3]	IC50 (recombinant human FAP)	IC50 [4]
C[C@@H](NC(=O)c1ccc(CNC(=O)CN2CCN(CC(=O)O)CCN(CC(=O)O)CCN(CC(=O)O)CC2)cc1)C(=O)N1CCC[C@H]1B(O)O [Compound 6555, DOTA-aminomethyl-Bz-D-Ala-boroPro]	> 100 µM	> 50 mg/mL	did not observe any sign of degradation	–	–
CC(C)[C@H](NC(=O)CNC(=O)CNC(=O)CN1CCN2CCN(CC(=O)O)CCN(CC1)CC(=O)[O][Cu][O]C(=O)C2)C(=O)N[C@H](C)C(=O)N1CCC[C@H]1B(O)O [Compound 6522CU, DOTA[(Cu(II)]-Gly-Gly-Val-D-Ala-boroPro] (HELM PEPTIDE1{[O=C(O)CN1CCN2CCN(CC(=O)[*:2])CCN(CC1)CC(=O)[O][Cu][O]C(=O)C2].G.G.V.[dA].[OB(O)[C@@H]1CCCN1[*:1]]}$$$$V2.0)	–	–	–	0.0087 µM	0.0035 µM
C[C@@H](NC(=O)c1ccc(CNC(=O)CN2CCN3CCN4CCN(CC2)CC(=O)[O][Ga]([O]C(=O)C3)[O]C(=O)C4)cc1)C(=O)N1CCC[C@H]1B(O)O [Compound 6555GA]	> 100 µM	> 50 mg/mL	did not observe any sign of degradation	–	–
C[C@H](NC(=O)CN1CCN(CC(=O)O)CCN(CC(=O)O)CCN(CC(=O)O)CC1)C(=O)N[C@H](C)C(=O)N1CCC[C@H]1B(O)O [Compound 6511, DOTA-Ala-D-Ala-boroPro]	–	–	–	0.0717 µM	–
C[C@@H](NC(=O)[C@H](CO)NC(=O)CN1CCN2CCN(CC(=O)O)CCN(CC1)CC(=O)[O][Cu][O]C(=O)C2)C(=O)N1CCC[C@H]1B(O)O [Compound 6509CU, DOTA[(Cu(II)]-Ser-D-Ala-boroPro]	–	–	–	0.128 µM	0.128 µM
C[C@@H](NC(=O)c1ccc(NNC(=O)CCCNC(=O)CN2CCN3CCN4CCN(CC2)CC(=O)[O][Gd]([O]C(=O)C3)[O]C(=O)C4)cc1)C(=O)N1CCC[C@H]1B(O)O [Compound 6489Gd, DOTA[Gd]-GABA-HyBz-D-Ala-boroPro]	–	–	–	0.0011 µM	–
C[C@@H](NC(=O)[C@H]1CC[C@H](CNC(=O)CN2CCN3CCN4CCN(CC2)CC(=O)[O][Ga]([O]C(=O)C3)[O]C(=O)C4)CC1)C(=O)N1CCC[C@H]1B(O)O [Compound 6952GA, DOTA(Ga)-TXA-D-alaboroPro]	–	> 50 mg/mL	did not observe any sign of degradation	–	–
C[C@@H](NC(=O)c1ccc(CNC(=O)CN2CCN3CCN4CCN(CC2)CC(=O)[O][Lu]([O]C(=O)C3)[O]C(=O)C4)cc1)C(=O)N1CCC[C@H]1B(O)O [Compound 6555LU]	> 100 µM	> 50 mg/mL	did not observe any sign of degradation	–	–
DOTA[Cu(II)]-EACA-HyBz-D-Ala-boroPro [Compound 6486]	–	–	–	0.0028 µM	0.0028 µM
C[C@@H](NC(=O)CNC(=O)CN1CCN(CC(=O)O)CCN(CC(=O)O)CCN(CC(=O)O)CC1)C(=O)N1CCC[C@H]1B(O)O [Compound 6512, DOTA-Gly-D-Ala-boroPro]	–	–	–	0.0731 µM	–
C[C@@H](NC(=O)[C@H]1CC[C@H](CNC(=O)CN2CCN3CCN4CCN(CC2)CC(=O)[O][Lu]([O]C(=O)C3)[O]C(=O)C4)CC1)C(=O)N1CCC[C@H]1B(O)O [Compound 6952LU, DOTA(Lu)-TXA-D-alaboroPro]	> 100 µM	> 50 mg/mL	did not observe any sign of degradation	–	–
CC(C)[C@H](NC(=O)CN1CCN(CC(=O)O)CCN(CC(=O)O)CCN(CC(=O)O)CC1)C(=O)N[C@H](C)C(=O)N1CCC[C@H]1B(O)O [Compound 6508, DOTA-Val-DAla-boroPro]	–	–	–	0.062 µM	–
